Data on 29 compounds can be found in patent US12612380B2, “Non-lysosomal glucosylceramidase inhibitors and uses thereof” (ALECTOS THERAPEUTICS INC., priority 2019, dated 2026).

The IC50 is the concentration that gives 50% inhibition.

The target in the first assay is T1, GBA2 (Homo sapiens, UniProt Q9HCG7).
T1 sequence (Q9HCG7 1-927): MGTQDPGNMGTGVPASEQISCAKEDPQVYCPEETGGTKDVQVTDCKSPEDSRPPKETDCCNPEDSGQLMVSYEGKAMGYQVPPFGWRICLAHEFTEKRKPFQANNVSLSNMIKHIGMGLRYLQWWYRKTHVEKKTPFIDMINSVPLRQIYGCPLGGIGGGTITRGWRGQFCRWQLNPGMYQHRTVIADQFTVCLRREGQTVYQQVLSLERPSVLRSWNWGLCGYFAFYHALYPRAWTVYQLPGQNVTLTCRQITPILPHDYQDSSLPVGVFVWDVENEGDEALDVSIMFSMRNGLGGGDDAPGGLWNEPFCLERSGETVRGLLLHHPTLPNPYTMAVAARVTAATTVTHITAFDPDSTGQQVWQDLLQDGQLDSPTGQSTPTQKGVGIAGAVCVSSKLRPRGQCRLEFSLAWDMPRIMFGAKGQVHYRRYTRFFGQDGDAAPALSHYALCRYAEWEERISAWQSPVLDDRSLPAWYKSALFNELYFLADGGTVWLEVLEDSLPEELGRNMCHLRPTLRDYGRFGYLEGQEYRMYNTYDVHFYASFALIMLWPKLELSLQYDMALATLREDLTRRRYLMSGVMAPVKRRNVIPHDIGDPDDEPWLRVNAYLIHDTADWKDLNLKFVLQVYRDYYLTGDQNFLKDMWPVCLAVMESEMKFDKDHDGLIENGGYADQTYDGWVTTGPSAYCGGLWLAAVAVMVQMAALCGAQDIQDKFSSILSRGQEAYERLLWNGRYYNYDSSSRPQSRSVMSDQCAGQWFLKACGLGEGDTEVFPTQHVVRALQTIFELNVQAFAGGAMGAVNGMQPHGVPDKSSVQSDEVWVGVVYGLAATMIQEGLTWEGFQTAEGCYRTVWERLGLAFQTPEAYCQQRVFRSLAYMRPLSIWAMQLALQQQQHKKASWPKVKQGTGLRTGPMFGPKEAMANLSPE
Kind of assay: Determination of IC50 values for inhibition of GBA2 in cell lysate. In kind it is biochemical. On the set-up: host or cells: HEK293T (lentiviral transduction, puromycin selection); used as cellular homogenate.
Conditions: not given
The procedure, abridged: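 Homogenate of HEK293T cells stably overexpressing human GBA2 (0.083 mg/mL final), pretreated with 20 μM GCase inhibitor, preincubated 5 min at 37 °C with compound, then reacted 20 min with 250 μM 4-methylumbelliferyl-β-D-glucopyranoside at pH 5.5 (citrate-phosphate, 1% C10E6). Fluorescence read at 365/450 nm after alkaline stop; IC50 from log-inhibitor curve fit.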
Regarding `C[C@@H]1[C@@H](O)[C@H](O)[C@@H](O)CN1CCc1ccccc1Cl` [Example 39, (2R,3R,4R,5S)-1-(2-chlorophenethyl)-2-methylpiperidine-3,4,5-triol], the IC50 was 100 to 1000 nM.

On to `C[C@@H]1[C@@H](O)[C@H](O)[C@@H](O)CN1CCc1ccc(OC2CCOCC2)cc1` [Example 63, (2R,3R,4R,5S)-2-methyl-1-(4-((tetrahydro-2H-pyran-4-yl)oxy)phenethyl)piperidine-3,4,5-triol], for which the IC50 was under 100 nM.

Consider `C[C@@H]1[C@@H](O)[C@H](O)[C@@H](O)CN1CCc1cccc(F)c1F` [Example 40, (2R,3R,4R,5S)-1-(2,3-difluorophenethyl)-2-methylpiperidine-3,4,5-triol], for which the IC50 is 100 to 1000 nM.

`C[C@@H]1[C@@H](O)[C@H](O)[C@@H](O)CN1CCc1ccc(OC2CCCOC2)cc1` (stereo partly drawn) [Example 62, (2R,3R,4R,5S)-2-methyl-1-(4-((tetrahydro-2H-pyran-3-yl)oxy)phenethyl)piperidine-3,4,5-triol]: the IC50 was under 100 nM.

Take `C=C(C)c1cc(F)c(CCN2C[C@H](O)[C@@H](O)[C@H](O)[C@H]2C)c(F)c1` [Example 50, (2R,3R,4R,5S)-1-(2,6-difluoro-4-(prop-1-en-2-yl)phenethyl)-2-methylpiperidine-3,4,5-triol]: the IC50 was under 100 nM.

Still in this assay, the particulars now being: cellular homogenate of HEK293T cells overexpressing human GBA2, 250 μM 4-methylumbelliferone-β-D glucopyranoside, pH 5.5, 37° C., GCase inhibitor present; read-out: GBA2 IC50.
In the case of `C[C@@H]1[C@@H](O)[C@H](O)[C@@H](O)CN1CC1CCC(Cl)(Cl)CC1` [Example 4, (2R,3R,4R,5S)-1-((4,4-dichlorocyclohexyl)methyl)-2-methylpiperidine-3,4,5-triol], the IC50 is under 100 nM.

As to `Cc1ccncc1N1CC[C@H](CN2C[C@H](O)[C@@H](O)[C@H](O)[C@H]2C)C1` [Example 123, (2R,3R,4R,5S)-2-methyl-1-(((R)-1-(4-methylpyridin-3-yl)pyrrolidin-3-yl)methyl)piperidine-3,4,5-triol], the IC50 was in the range of 100 to 1000 nM.

With `C[C@@H]1[C@@H](O)[C@H](O)[C@@H](O)CN1CC1CCN(C(=S)NC2CCCCC2)CC1` [Example 111, N-cyclohexyl-4-(((2R,3R,4R,5S)-3,4,5-trihydroxy-2-methylpiperidin-1-yl)methyl)piperidine-1-carbothioamide], the IC50 fell in the range of 100 to 1000 nM.

`C[C@@H]1[C@@H](O)[C@H](O)[C@@H](O)CN1CC1CCN(C(=O)NC2CCCCC2)CC1` [Example 110, N-cyclohexyl-4-(((2R,3R,4R,5S)-3,4,5-trihydroxy-2-methylpiperidin-1-yl)methyl)piperidine-1-carboxamide]: the IC50 lay within 100 to 1000 nM.

On to `C[C@@H]1[C@@H](O)[C@H](O)[C@@H](O)CN1CC1(F)CCN(c2ccccc2)CC1` [Example 88, (2R,3R,4R,5S)-1-((4-fluoro-1-phenylpiperidin-4-yl)methyl)-2-methylpiperidine-3,4,5-triol], for which the IC50 was 100 to 1000 nM.

For the compound `CC(C)[C@H]1CC[C@H](CN2C[C@H](O)[C@@H](O)[C@H](O)[C@H]2C)CC1` [Example 8, (2R,3R,4R,5S)-1-(((1r,4R)-4-isopropylcyclohexyl)methyl)-2-methylpiperidine-3,4,5-triol], the IC50 is under 100 nM.

Turning to `C[C@@H]1[C@@H](O)[C@H](O)[C@@H](O)CN1C[C@H]1CCC[C@@H](C(F)(F)F)C1` [Example 16, (2R,3R,4R,5S)-2-methyl-1-(((cis)-3-(trifluoromethyl)cyclohexyl)methyl)piperidine-3,4,5-triol], the IC50 lay within 100 to 1000 nM.

With `CCCC(=O)N1CCC(CN2C[C@H](O)[C@@H](O)[C@H](O)[C@H]2C)CC1` [Example 94, 1-(4-(((2R,3R,4R,5S)-3,4,5-trihydroxy-2-methylpiperidin-1-yl)methyl)piperidin-1-yl)butan-1-one], the IC50 lay within 1000 to 25000 nM.

Take `CC(C)CC(=O)N1CCC(CN2C[C@H](O)[C@@H](O)[C@H](O)[C@H]2C)CC1` [Example 95, 3-methyl-1-(4-(((2R,3R,4R,5S)-3,4,5-trihydroxy-2-methylpiperidin-1-yl)methyl)piperidin-1-yl)butan-1-one]: the IC50 is 100 to 1000 nM.

With `C[C@@H]1[C@@H](O)[C@H](O)[C@@H](O)CN1CC1CCN(C(=O)C2CCC2)CC1` [Example 99, cyclobutyl(4-(((2R,3R,4R,5S)-3,4,5-trihydroxy-2-methylpiperidin-1-yl)methyl)piperidin-1-yl)methanone], the half-maximal inhibitory concentration (IC50) lay within 100 to 1000 nM.

As for `CCC1CCC(CN2C[C@H](O)[C@@H](O)[C@H](O)[C@H]2C)CC1` (stereo partly drawn) [Example 5, (2R,3R,4R,5S)-1-((4-ethylcyclohexyl)methyl)-2-methylpiperidine-3,4,5-triol], the IC50 is under 100 nM.

Consider `C[C@@H]1[C@@H](O)[C@H](O)[C@@H](O)CN1CC1CCN(CC(F)(F)F)CC1` [Example 91, (2R,3R,4R,5S)-2-methyl-1-((1-(2,2,2-trifluoroethyl)piperidin-4-yl)methyl)piperidine-3,4,5-triol], for which the IC50 fell in the range of 100 to 1000 nM.

`C[C@@H]1[C@@H](O)[C@H](O)[C@@H](O)CN1C[C@H]1CC[C@]2(CC1)COC(C)(C)C2` [Example 26, (2R,3R,4R,5S)-1-(((5S,8s)-3,3-dimethyl-2-oxaspiro[4.5]decan-8-yl)methyl)-2-methylpiperidine-3,4,5-triol]: the IC50 lay in the range of 100 to 1000 nM.

Turning to `C[C@@H]1[C@@H](O)[C@H](O)[C@@H](O)CN1C[C@@H]1CCN(c2cnccc2C(F)(F)F)C1` [Example 133, (2R,3R,4R,5S)-2-methyl-1-(((S)-1-(4-(trifluoromethyl)pyridin-3-yl)pyrrolidin-3-yl)methyl)piperidine-3,4,5-triol], the IC50 is under 100 nM.

For the compound `C[C@@H]1[C@@H](O)[C@H](O)[C@@H](O)CN1C[C@@H]1CCN(c2ncccc2C(F)(F)F)C1` [Example 132, (2R,3R,4R,5S)-2-methyl-1-(((S)-1-(3-(trifluoromethyl)pyridin-2-yl)pyrrolidin-3-yl)methyl)piperidine-3,4,5-triol], the IC50 is under 100 nM.

As to `C[C@H](CN1C[C@H](O)[C@@H](O)[C@H](O)[C@H]1C)c1ccccc1` [Example 67, (2R,3R,4R,5S)-2-methyl-1-((S)-2-phenylpropyl)piperidine-3,4,5-triol], the IC50 lay in the range of 100 to 1000 nM.

As to `C[C@@H]1[C@@H](O)[C@H](O)[C@@H](O)CN1CC1Cc2ccccc2C1` [Example 28, (2R,3R,4R,5S)-1-((2,3-dihydro-1H-inden-2-yl)methyl)-2-methylpiperidine-3,4,5-triol], the IC50 was under 100 nM.

Consider `C[C@@H]1[C@@H](O)[C@H](O)[C@@H](O)CN1CC1CCC(F)(F)CC1` [Example 3, (2R,3R,4R,5S)-1-((4,4-difluorocyclohexyl)methyl)-2-methylpiperidine-3,4,5-triol], for which the IC50 was 1000 to 25000 nM.

Consider `C[C@@H]1[C@@H](O)[C@H](O)[C@@H](O)CN1C[C@H]1CC[C@H](C(C)(C)C)CC1` [Example 10, (2R,3R,4R,5S)-1-(((1r,4R)-4-(tert-butyl)cyclohexyl)methyl)-2-methylpiperidine-3,4,5-triol], for which the IC50 was under 100 nM.

For `C[C@@H]1[C@@H](O)[C@H](O)[C@@H](O)CN1CC1CCN(c2ccc(C(F)(F)F)cc2)CC1` [Example 86, (2R,3R,4R,5S)-2-methyl-1-((1-(4-(trifluoromethyl)phenyl)piperidin-4-yl)methyl)piperidine-3,4,5-triol], the IC50 is under 100 nM.

`C[C@@H]1[C@@H](O)[C@H](O)[C@@H](O)CN1CCCC1CCCCC1` [Example 34, (2R,3R,4R,5S)-1-(3-cyclohexylpropyl)-2-methylpiperidine-3,4,5-triol]: the IC50 is under 100 nM.

Consider `C[C@@H]1[C@@H](O)[C@H](O)[C@@H](O)CN1CCC1CCC(F)(F)CC1` [Example 30, (2R,3R,4R,5S)-1-(2-(4,4-difluorocyclohexyl)ethyl)-2-methylpiperidine-3,4,5-triol], for which the IC50 lay in the range of 100 to 1000 nM.

Consider `C[C@@H]1[C@@H](O)[C@H](O)[C@@H](O)CN1C[C@@H]1CCN(c2nc(C(F)(F)F)cs2)C1` [Example 135, (2R,3R,4R,5S)-2-methyl-1-(((S)-1-(4-(trifluoromethyl)thiazol-2-yl)pyrrolidin-3-yl)methyl)piperidine-3,4,5-triol], for which the IC50 is under 100 nM.

Turning to `C[C@@H]1[C@@H](O)[C@H](O)[C@@H](O)CN1CCc1ccc(-c2ccccc2)cc1` [Example 68, (2R,3R,4R,5S)-1-(2-([1,1′-biphenyl]-4-yl)ethyl)-2-methylpiperidine-3,4,5-triol], the IC50 is under 100 nM.
